The record followed here is the NIST ThermoML archive (doi:10.1016/j.jct.2012.02.007).

± gives the expanded uncertainty stated by the source.

For the series the following is noted: 101.33 kPa, Liquid; for speed of sound: Sing-around technique in a fixed-path interferometer; for mass density: Vibrating tube method.

For the molecule `CCCCn1cc[n+](C)c1.N#CN=C=[N-]` [1-butyl-3-methylimidazolium dicyanamide], the speed of sound is on record as 1750.2 ± 2.2 m/s (293.15 K), 1712.6 ± 2.2 m/s (308.15 K) and 1667.3 ± 2.2 m/s (323.15 K). The mass density runs as follows: (293.15 K) 1063.32 ± 0.97 kg/m3; (308.15 K) 1053.81 ± 0.95 kg/m3; (323.15 K) 1044.42 ± 0.93 kg/m3.
As for `CCCCO` [butan-1-ol], the speed of sound by setting is: (293.15 K) 1256.7 ± 0.8 m/s; (308.15 K) 1206.5 ± 0.8 m/s; (323.15 K) 1156.9 ± 0.8 m/s. Besides, the mass density is, setting by setting: (293.15 K) 809.53 ± 0.12 kg/m3; (308.15 K) 798.06 ± 0.12 kg/m3; (323.15 K) 786.21 ± 0.12 kg/m3.
Regarding `CCC(C)O` (stereo unspecified) [butan-2-ol], the speed of sound is, setting by setting: (293.15 K) 1229.5 ± 0.9 m/s; (308.15 K) 1175.5 ± 0.8 m/s; (323.15 K) 1120.3 ± 0.8 m/s. The mass density reads like this: (293.15 K) 806.47 ± 0.12 kg/m3; (308.15 K) 793.92 ± 0.12 kg/m3; (323.15 K) 780.44 ± 0.13 kg/m3.
In the case of `CCCCCO` [pentan-1-ol], the speed of sound by setting is: (293.15 K) 1292.5 ± 1.3 m/s; (308.15 K) 1242.4 ± 1.3 m/s; (323.15 K) 1192.8 ± 1.3 m/s. The mass density by setting is: (293.15 K) 814.54 ± 0.24 kg/m3; (308.15 K) 803.53 ± 0.24 kg/m3; (323.15 K) 792.17 ± 0.24 kg/m3.
With `CCCO` [propan-1-ol], the speed of sound runs as follows: (293.15 K) 1223.4 ± 0.8 m/s; (308.15 K) 1172.3 ± 0.8 m/s; (323.15 K) 1121.8 ± 0.8 m/s. Also, the mass density (293.15 K) turned out to be 803.87 ± 0.12 kg/m3, the mass density (308.15 K) turned out to be 791.79 ± 0.12 kg/m3 and the mass density (323.15 K) was 779.3 ± 0.13 kg/m3.
For `CC(C)O` [propan-2-ol], the speed of sound was determined as 1157.3 ± 0.8 m/s (293.15 K), 1104.8 ± 0.8 m/s (308.15 K) and 1051.6 ± 0.8 m/s (323.15 K). The mass density is listed as 785.4 ± 0.13 kg/m3 (293.15 K), 772.6 ± 0.13 kg/m3 (308.15 K) and 759 ± 0.14 kg/m3 (323.15 K).

In general, speed of sound refers to how fast a sound wave travels through the sample. As a reminder, the mass density is the mass of a sample divided by its volume.
